Where a name gives a salt, the structure may show the parent alone. Read-outs that look alike come from different tables or passages of the source.
Experiments:
α1 adrenoceptor = experiment: Radioligand binding assay, α1 adrenoceptor ([3H]prazosin, rat cerebral cortex membranes); details: for Ki / percent value (α1): rat cerebral cortex membranes; for Ki: 0.2 nM [3H]prazosin, hydrochloride salts, read-out: Ki ± SEM (α1); for percent value (α1): [3H]prazosin, footnote to * not given; for binding to the α1 adrenoceptor (in words): see table 1
Method: (§1) For all receptor binding assays, male Sprague-Dawley rats (Rattus norvegicus albinus), weighing 180-200 g, were killed by decapitation and the brains rapidly removed and dissected. Tissues were stored at −80° C. for subsequent use and homogenized on a Polytron PT-10 homogenizer. Membrane suspensions were centrifuged on a Beckman J2-HS instrument.
The cerebral cortex was homogenized in 20 volumes of ice-cold buffer (50 mM Tris-HCl, 10 mM MgCl2, pH 7.4 at 25° C.) and centrifuged at 30000 g for 15 min. Pellets were washed twice by resuspension and centrifugation. Final pellets were resuspended in the same buffer. Fractions of the final membrane suspension (about 250 μg of protein) were incubated at 25° C. for 30 min with 0.2 nM [^3H]prazosin (23 Ci/mmol), in the presence or absence of six concentrations of the competing drug, in a final volume of 2 mL of buffer. Nonspecific binding was determined with 10 μM phentolamine.
(§2) For all binding assays, competing drug, nonspecific, total and radioligand bindings were defined in triplicate. Incubation was terminated by rapid vacuum filtration through Whatman GF/B filters, presoaked in 0.05% poly(ethylenimine), using a Brandel cell harvester. The filters were then washed with the assay buffer, dried and placed in poly(ethylene) vials to which were added 4 mL of a scintillation cocktail (Aquasol). The radioactivity bound to the filters was measured by liquid scintillation spectrometry. The data were analyzed by an iterative curve-fitting procedure (program Prism, Graph Pad), which provided IC50, Ki, and r^2 values for test compounds, Ki values being calculated from the Cheng and Prusoff equation. The protein concentrations of the rat cerebral cortex and the rat striatum were determined by the method of Lowry, using bovine serum albumin as the standard.

5-HT1A receptor = molecular target: T1, 5-HT1A receptor (Rattus norvegicus, UniProt P19327); experiment: Radioligand binding assay, 5-HT1A receptor ([3H]-8-OH-DPAT, rat cerebral cortex membranes); details: for binding to the 5-HT1A receptor (in words): see table 1
T1 construct: The cerebral cortex was homogenized in 10 volumes of ice-cold Tris buffer; from tissue; host or cells: rat cerebral cortex membranes
T1 sequence (P19327 1-422): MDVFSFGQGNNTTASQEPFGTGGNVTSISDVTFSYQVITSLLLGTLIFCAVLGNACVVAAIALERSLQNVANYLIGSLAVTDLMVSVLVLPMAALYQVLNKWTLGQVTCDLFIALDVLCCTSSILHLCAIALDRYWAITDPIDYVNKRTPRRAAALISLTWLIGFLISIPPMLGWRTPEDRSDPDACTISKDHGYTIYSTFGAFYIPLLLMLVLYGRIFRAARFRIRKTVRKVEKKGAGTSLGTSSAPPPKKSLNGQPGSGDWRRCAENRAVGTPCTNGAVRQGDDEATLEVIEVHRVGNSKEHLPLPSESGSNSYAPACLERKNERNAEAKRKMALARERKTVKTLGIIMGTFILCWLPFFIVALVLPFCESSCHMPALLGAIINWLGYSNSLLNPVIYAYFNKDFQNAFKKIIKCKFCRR
Method: as §1
The cerebral cortex was homogenized in 10 volumes of ice-cold Tris buffer (50 mM Tris-HCl, pH 7.7 at 25° C.) and centrifuged at 28000 g for 15 min. The membrane pellet was washed twice by resuspension and centrifugation. After the second wash the resuspended pellet was incubated at 37° C. for 10 min. Membranes were then collected by centrifugation and the final pellet was resuspended in 50 mM Tris-HCl, 5 mM MgSO4, and 0.5 mM EDTA buffer (pH 7.4 at 37° C.). Fractions of 100 μL of the final membrane suspension (about 1 mg of protein) were incubated at 37° C. for 15 min with 0.6 nM [^3]-8-OH-DPAT (133 Ci/mmol), in the presence or absence of the competing drug, in a final volume of 1.1 mL of assay buffer (50 mM Tris-HCl, 10 nM clonidine, 30 nM prazosin, pH 7.4 at 37° C.). Nonspecific binding was determined with 10 μM 5-HT.
as §2

[1] = rat cerebral cortex membranes, 0.6 nM [3H]-8-OH-DPAT, hydrochloride salts, read-out: Ki ± SEM (5-HT1A)

| Ki (α1 adrenoceptor) | Ki (5-HT1A receptor; [1]) | percent value (α1) (α1 adrenoceptor) | Compound | other results |
| --- | --- | --- | --- | --- |
| – | – | – | O=C1C2CCCN2C(=O)CN1CCCCN1CCN(c2cccc3ccccc23)CC1 (centres unmarked) (as salt: hydrochloride) [Compound (g), 2-[4-[4-(Naphth-1-yl)piperazin-1-yl]butyl]-1,4-dioxoperhydropyrrolo[1,2-a]pyrazine] | melting point: 277 to 280 °C (dec.) |
| – | – | – | O=C1C2CCCN2C(=O)CN1CCCCN1CCN(c2cccc3c2OCCCO3)CC1 (centres unmarked) (as salt: hydrochloride) [Compound (h), 2-[4-[4-(3,4-Dihydro-2H-1,5-benzodioxepin-6-yl)piperazin-1-yl]butyl]-1,4-dioxoperhydropyrrolo[1,2-a]pyrazine] | melting point: 212 to 213 °C (dec.) |
| 20.1 ± 0.8 nM | 4.2 ± 0.9 nM | – | C[C@@H]1CN(c2cccc3ccccc23)CCN1CCCCN1CC(=O)N2CCCC2C1=O (mixture of isomers) [(a), (2R, 8aRS)-2-[4-[4-(Naphth-1-yl)-2-methylpiperazin-1-yl]butyl]-1,4-dioxoperhydropyrrolo[1,2-a]pyrazine] | – |
| 34.4 ± 1.2 nM | 15.3 ± 1.8 nM | – | C[C@H]1CN(c2cccc3ccccc23)CCN1CCCCN1CC(=O)N2CCCC2C1=O (mixture of isomers) [(b), (2S, 8aRS)-2-[4-[4-(Naphth-1-yl)-2-methylpiperazin-1-yl]butyl]-1,4-dioxoperhydropyrrolo[1,2-a]pyrazine] | – |
| – | 11.7 ± 3.4 nM | 76%* | C[C@@H]1CN(c2cccc(Cl)c2)CCN1CCCN1C(=O)C2CCCN2C1=O (mixture of isomers) [(i), (2R,7aRS)-(−)-2-[3-[4-(3-Chlorophenyl)-2-methylpiperazin-1-yl]propyl]-1,3-dioxoperhydropyrrolo[1,2-c]imidazole] | – |
| – | 21.9 ± 5.1 nM | 56%* | COc1cccc(N2CCN(CCCN3C(=O)C4CCCN4C3=O)[C@@H](C)C2)c1 (mixture of isomers) [(j), (2S,7aRS)-(+)-2-[3-[4-(3-Methoxyphenyl)-2-methylpiperazin-1-yl]propyl]-1,3-dioxoperhydropyrrolo[1,2-c]imidazole] | – |
| – | 6.7 ± 0.5 nM | 64%* | C[C@H]1CN(c2cccc3ccoc23)CCN1CCCN1C(=O)C2CCCN2C1=O (mixture of isomers) [(k), (2S,7aRS)-(−)-2-[3-[4-(1-Benzofuran-7-yl)-2-methylpiperazin-1-yl]propyl]-1,3-dioxoperhydropyrrolo[1,2-c]imidazole] | – |
| – | 2.4 ± 0.3 nM | 87%* | CC[C@@H]1CN(c2cccc3ccccc23)CCN1CCCCN1C(=O)C2CCCN2C1=O (mixture of isomers) [(l), (2R,7aRS)-(−)-2-[4-[2-Ethyl-4-(naphth-1-yl)piperazin-1-yl]butyl]-1,3-dioxoperhydropyrrolo [1,2-c]imidazole] | – |
| > 1000 nM | 2.3 ± 0.3 nM | – | C[C@@H]1CN(c2cccc3nc[nH]c23)CCN1CCCCN1C(=O)C2CCCN2C1=O (mixture of isomers) [(m), (2R,7aRS)-(−)-2-[4-[4-(Benzimidazol-4-yl)-2-methylpiperazin-1-yl]butyl]-1,3-dioxoperhydropyrrolo[1,2-c]imidazole] | – |
| – | 21 ± 3 nM | 64%* | CC[C@@H]1CN(c2cccc(OC)c2)CCN1CCCCN1C(=O)C2CCCN2C1=O (mixture of isomers) [(o), (2R,7aRS)-(−)-2-[4-[2-Ethyl-4-(3-methoxyphenyl)piperazin-1-yl]butyl]-1,3-dioxoperhydropyrrolo[1,2-c]imidazole] | – |
| – | – | 75%* | Cc1ccc(N2CCN(CCCCN3C(=O)C4CCCN4C3=O)[C@@H](C)C2)c2ccccc12 (mixture of isomers) [(p), (2S,7aRS)-(+)-2-[4-[2-Methyl-4-(4-methylnaphth-1-yl)piperazin-1-yl]butyl]-1,3-dioxoperhydropyrrolo[1,2-c]imidazole] | Ki (5-HT1A receptor): 15.3 ± 0.8 nM |
| – | 22.1 ± 0.1 nM | 62%* | C[C@H]1CN(c2ccccc2)CCN1CCCCN1C(=O)C2CCCN2C1=O (mixture of isomers) [(q), (2S,7aRS)-(+)-2-[4-[2-Methyl-4-phenylpiperazin-1-yl]butyl]-1,3-dioxoperhydropyrrolo[1,2-c]imidazole] | – |
| > 1000 nM | 4.1 ± 0.3 nM | – | C[C@H]1CN(c2cccc3nc[nH]c23)CCN1CCCCN1C(=O)C2CCCN2C1=O (mixture of isomers) [(r), (2S,7aRS)-(+)-2-[4-[4-(Benzimidazol-4-yl)-2-methylpiperazin-1-yl]butyl]-1,3-dioxoperhydropyrrolo[1,2-c]imidazole] | – |
| – | – | 66%* | C[C@H]1CN(c2ccc([N+](=O)[O-])c3ccccc23)CCN1CCCCN1C(=O)C2CCCN2C1=O (mixture of isomers) [(s), (2S,7aRS)-(+)-2-[4-[2-Methyl-4-(4-nitronaphth-1-yl)piperazin-1-yl]butyl]-1,3-dioxoperhydropyrrolo[1,2-c]imidazole] | percent value marked * in column Ki ± SEM (5-HT1A) (5-HT1A receptor; rat cerebral cortex membranes, [3H]-8-OH-DPAT, footnote to * not given): 87%* |
| > 1000 nM | 9.5 ± 2.2 nM | – | C[C@@H]1CN(c2cccc3ccccc23)CCN1CN1CC(=O)N2CCC[C@@H]2C1=O [(c), (2R,8aR)-2-[[4-(Naphth-1-yl)-2-methylpiperazin-1-yl]methyl]-1,4-dioxoperhydropyrrolo[1,2-a]pyrazine] | – |
| > 1000 nM | 2.5 ± 0.1 nM | – | C[C@H]1CN(c2cccc3ccccc23)CCN1CN1CC(=O)N2CCC[C@H]2C1=O [(d), (2S,8aS)-2-[[4-(Naphth-1-yl)-2-methylpiperazin-1-yl]methyl]-1,4-dioxoperhydropyrrolo[1,2-a]pyrazine] | – |
| > 1000 nM | 6.3 ± 0.2 nM | – | C[C@@H]1CN(c2cccc3ccccc23)CCN1CN1CC(=O)N2CCC[C@H]2C1=O [(e), (2R,8aS)-2-[[4-(Naphth-1-yl)-2-methylpiperazin-1-yl]methyl]-1,4-dioxoperhydropyrrolo[1,2-a]pyrazine] | – |
| > 1000 nM | 6.4 ± 0.1 nM | – | C[C@H]1CN(c2cccc3ccccc23)CCN1CN1CC(=O)N2CCC[C@@H]2C1=O [(f), (2S,8aR)-2-[[4-(Naphth-1-yl)-2-methylpiperazin-1-yl]methyl]-1,4-dioxoperhydropyrrolo[1,2-a]pyrazine] | – |
| – | 1.6 ± 0.4 nM | 75%* | C[C@H]1CN(c2cccc3ccoc23)CCN1CCCCN1C(=O)[C@@H]2CCCN2C1=O [(n), (2S,7aS)-(+)-2-[4-[4-(1-Benzofuran-7-yl)-2-methylpiperazin-1-yl]butyl]-1,3-dioxoperhydropyrrolo[1,2-c]imidazole] | – |
| 8 ± 1.7 nM | 0.5 ± 0.2 nM | – | O=C1C2CCCN2C(=O)CN1CCCCN1CCN(c2cccc3ccccc23)CC1 (centres unmarked) [Compound (g), 2-[4-[4-(Naphth-1-yl)piperazin-1-yl]butyl]-1,4-dioxoperhydropyrrolo[1,2-a]pyrazine] | binding to the α1 adrenoceptor (in words) (α1 adrenoceptor): low nanomolar range; binding to the 5-HT1A receptor (in words) (5-HT1A receptor): picomolar range |
| 348 ± 21 nM | 3.1 ± 0.9 nM | – | O=C1C2CCCN2C(=O)CN1CCCCN1CCN(c2cccc3c2OCCCO3)CC1 (centres unmarked) [Compound (h), 2-[4-[4-(3,4-Dihydro-2H-1,5-benzodioxepin-6-yl)piperazin-1-yl]butyl]-1,4-dioxoperhydropyrrolo[1,2-a]pyrazine] | binding to the α1 adrenoceptor (in words) (α1 adrenoceptor): nanomolar range; binding to the 5-HT1A receptor (in words) (5-HT1A receptor): low nanomolar range |
